This experiment deals with GADD153 mRNA. Briefly: GADD153 mRNA level in UMSCC10b xenografts in nude mice after cDDP. The experiment is classed as in vivo. The protocol:
The various aspects of the invention are also useful for xenografted tumors. Nude mice were inoculated s.c. with human UMSCC10b tumor cells, and then treated with cDDP (0, 10, 15, 30 or 50 mg/kg cDDP i.p.) when the tumors reached 1 ml in volume. FIG. 5a depicts the results obtained when tumors were harvested at 24 h after cDDP treatment. […] The time course of the change in message level in the xenografts was similar to that observed with in vitro exposure of the cells (FIG. 5b). Thus, GADD153 mRNA levels can be increased in vivo by cDDP doses around the maximum tolerated dose in this system (15-20 mg/kg cDDP).
UMSCC10b cells were injected subcutaneously over the shoulder of athymic (BALB/c nu/nu) female mice, 3-4 weeks of age (Harlan Sprague Dawley, Indianapolis, Ind.). The xenografts were allowed to grow until they reached approximately […] in volume, at which time cDDP treatment was initiated. […]
GADD153 message levels were quantified using a modification of the technique reported by Horikoshi et al (20). […] PCR products were separated on a 8 M (6%) acrylamide gel and analyzed using a Molecular Imaging System (BioRad, Hercules, Calif.). For each RNA sample to be analyzed, a series of PCR reactions was performed to generate a graph of the amount of PCR product as a function of input CDNA for both GADD153 and β-ACTIN. […]

Turning to `[NH2][Pt]([NH2])([Cl])[Cl]` [cDDP, cisplatin], the “time of return of GADD153 mRNA toward basal levels in vivo” value (UMSCC10b xenografts after treatment) was not above 96 h. The “GADD153 mRNA levels in xenografts” value (tumors harvested 24 h after cDDP i.p., 0-50 mg/kg) is given as “increased as a function of cDDP dose”.

(Values after patent publication US6447997B1, “Gene coding for GADD153 as a clinical diagnostic and prognostic in cancer therapy” (Research Development Foundation, priority 1997, dated 2002).)
